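96-well plates; 48 h exposure; 5 concentrations. Endpoints by linear interpolation between flanking doses. Not reached: highest tested concentration assigned. GI50 = concentration required for 50% inhibition of growth.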 The source made the active and inactive calls. Rule as the data show it: active = GI50 up to about 1.1 µM and inactive = higher.
Experiments:
Test in all cases: inhibition of tumour cell growth, NCI panel, 48 h
[1] = test system: EKVX
[2] = test system: UO-31
[3] = test system: PC-3
[4] = test system: NCI-H522
[5] = test system: HOP-62
[6] = test system: HT-29
[7] = test system: T47D
[8] = test system: A498
[9] = test system: OVCAR-4
[10] = test system: OVCAR-5
[11] = test system: UACC-62
[12] = test system: UACC-257
[13] = test system: U-251
[14] = test system: SK-MEL-28
[15] = test system: SNB-19
[16] = test system: SF-539
[17] = test system: NCI-H23
[18] = test system: BT-549
[19] = test system: LOX IMVI
[20] = test system: Hs-578T

OCC1OC(n2cnc3c2N=CNC[C@H]3O)C(Cl)C1O (stereo not given in full)
GI50 [1]: > 100 µM (inactive)
GI50 [2]: > 100 µM (inactive)
GI50 [3]: > 100 µM (inactive)
GI50 [4]: > 100 µM (inactive)
GI50 [5]: > 100 µM (inactive)
GI50 [6]: > 100 µM (inactive)
GI50 [7]: > 100 µM (inactive)
GI50 [8]: > 100 µM (inactive)
GI50 [9]: > 100 µM (inactive)
GI50 [10]: > 100 µM (inactive)
GI50 [11]: > 100 µM (inactive)
GI50 [12]: > 100 µM (inactive)
GI50 [13]: > 100 µM (inactive)
GI50 [14]: > 100 µM (inactive)
GI50 [15]: > 100 µM (inactive)
GI50 [16]: > 100 µM (inactive)
GI50 [17]: > 100 µM (inactive)
GI50 [18]: > 100 µM (inactive)
GI50 [19]: > 100 µM (inactive)
GI50 [20]: > 100 µM (inactive)

CC(N/N=C(\S)N1CCCC1)c1cccnn1 (stereo not given)
GI50 [1]: 0.294 µM (active)
GI50 [2]: 0.741 µM (active)
GI50 [3]: 0.375 µM (active)
GI50 [4]: 2.31 µM (inactive)
GI50 [5]: 0.312 µM (active)
GI50 [6]: 0.426 µM (active)
GI50 [7]: 0.553 µM (active)
GI50 [8]: 4.91 µM (inactive)
GI50 [9]: 0.695 µM (active)
GI50 [10]: 0.318 µM (active)
GI50 [11]: 0.414 µM (active)
GI50 [12]: 0.267 µM (active)
GI50 [13]: 0.358 µM (active)
GI50 [14]: 0.453 µM (active)
GI50 [15]: 0.513 µM (active)
GI50 [16]: 0.215 µM (active)
GI50 [17]: 0.561 µM (active)
GI50 [18]: 0.433 µM (active)
GI50 [19]: 0.444 µM (active)
GI50 [20]: 9.53 µM (inactive)

CCCCCCCCCCCCCCC[C@@H](O)C[N+](C)(C)CCO
GI50 [1]: 8.77 µM (inactive)
GI50 [2]: 7.01 µM (inactive)
GI50 [3]: 1.06 µM (active)
GI50 [4]: 1.42 µM (inactive)
GI50 [5]: 2.88 µM (inactive)
GI50 [6]: 1.2 µM (inactive)
GI50 [7]: 6.82 µM (inactive)
GI50 [8]: 19.1 µM (inactive)
GI50 [9]: 4.2 µM (inactive)
GI50 [10]: 2.24 µM (inactive)
GI50 [11]: 3.92 µM (inactive)
GI50 [12]: 10.2 µM (inactive)
GI50 [13]: 1.73 µM (inactive)
GI50 [14]: 19.3 µM (inactive)
GI50 [15]: 1.63 µM (inactive)
GI50 [16]: 2.39 µM (inactive)
GI50 [17]: 2.06 µM (inactive)
GI50 [18]: 0.759 µM (active)
GI50 [19]: 2.07 µM (inactive)
GI50 [20]: 1.38 µM (inactive)

Cc1cc(=O)[nH]c2cc(NC(=O)C(CCCNC(=N)N)NC(=O)OCc3ccccc3)ccc12 (stereo not given)
GI50 [1]: > 100 µM (inactive)
GI50 [2]: > 100 µM (inactive)
GI50 [3]: > 100 µM (inactive)
GI50 [4]: > 100 µM (inactive)
GI50 [5]: > 100 µM (inactive)
GI50 [6]: > 100 µM (inactive)
GI50 [7]: > 100 µM (inactive)
GI50 [8]: > 100 µM (inactive)
GI50 [9]: > 100 µM (inactive)
GI50 [10]: > 100 µM (inactive)
GI50 [11]: > 100 µM (inactive)
GI50 [12]: > 100 µM (inactive)
GI50 [13]: > 100 µM (inactive)
GI50 [14]: > 100 µM (inactive)
GI50 [15]: > 100 µM (inactive)
GI50 [16]: > 100 µM (inactive)
GI50 [17]: > 100 µM (inactive)
GI50 [18]: > 100 µM (inactive)
GI50 [19]: > 100 µM (inactive)
GI50 [20]: > 100 µM (inactive)

Cc1cccc2c1C/C(=C\c1cccc(C)c1C(=O)O)C2=O
GI50 [1]: > 100 µM (inactive)
GI50 [2]: > 100 µM (inactive)
GI50 [3]: > 100 µM (inactive)
GI50 [4]: > 100 µM (inactive)
GI50 [5]: > 100 µM (inactive)
GI50 [6]: 70.1 µM (inactive)
GI50 [7]: > 100 µM (inactive)
GI50 [8]: > 100 µM (inactive)
GI50 [9]: > 100 µM (inactive)
GI50 [10]: > 100 µM (inactive)
GI50 [11]: > 100 µM (inactive)
GI50 [12]: > 100 µM (inactive)
GI50 [13]: > 100 µM (inactive)
GI50 [14]: > 100 µM (inactive)
GI50 [15]: > 100 µM (inactive)
GI50 [16]: > 100 µM (inactive)
GI50 [17]: > 100 µM (inactive)
GI50 [18]: > 100 µM (inactive)
GI50 [19]: > 100 µM (inactive)
GI50 [20]: > 100 µM (inactive)

Cc1ccc(S(=O)(=O)Oc2cc(S(=O)(=O)O)cc3cc(S(=O)(=O)O)cc(N)c23)cc1
GI50 [1]: > 100 µM (inactive)
GI50 [2]: 41.1 µM (inactive)
GI50 [3]: > 100 µM (inactive)
GI50 [4]: > 100 µM (inactive)
GI50 [5]: > 100 µM (inactive)
GI50 [6]: > 100 µM (inactive)
GI50 [7]: > 100 µM (inactive)
GI50 [8]: > 100 µM (inactive)
GI50 [9]: > 100 µM (inactive)
GI50 [10]: > 100 µM (inactive)
GI50 [11]: > 100 µM (inactive)
GI50 [12]: > 100 µM (inactive)
GI50 [13]: > 100 µM (inactive)
GI50 [14]: > 100 µM (inactive)
GI50 [15]: > 100 µM (inactive)
GI50 [16]: > 100 µM (inactive)
GI50 [17]: > 100 µM (inactive)
GI50 [18]: > 100 µM (inactive)
GI50 [19]: > 100 µM (inactive)
GI50 [20]: > 100 µM (inactive)

From ChEMBL document CHEMBL1201862, “PubChem BioAssay data set” (2004)
